Source: patent US10703746B2, “Mutant IDH1 inhibitors useful for treating cancer” (THE UNITED STATES OF AMERICA, AS REPRESENTED BY THE …, priority 2014, dated 2020)
pIC50: −log10 of the molar value.

What was measured:
IDH1 R132H = IDH1 R132H (Homo sapiens, UniProt O75874, R132H); test: IDH1 R132H enzymatic assay (NADPH depletion coupled to diaphorase/resazurin); type: biochemical
IDH1 R132C = IDH1 R132C (Homo sapiens, UniProt O75874, R132C); test: IDH1 R132C enzymatic assay (NADPH depletion coupled to diaphorase/resazurin); type: biochemical
Chain of IDH1 R132C (O75874 whole entry R132C): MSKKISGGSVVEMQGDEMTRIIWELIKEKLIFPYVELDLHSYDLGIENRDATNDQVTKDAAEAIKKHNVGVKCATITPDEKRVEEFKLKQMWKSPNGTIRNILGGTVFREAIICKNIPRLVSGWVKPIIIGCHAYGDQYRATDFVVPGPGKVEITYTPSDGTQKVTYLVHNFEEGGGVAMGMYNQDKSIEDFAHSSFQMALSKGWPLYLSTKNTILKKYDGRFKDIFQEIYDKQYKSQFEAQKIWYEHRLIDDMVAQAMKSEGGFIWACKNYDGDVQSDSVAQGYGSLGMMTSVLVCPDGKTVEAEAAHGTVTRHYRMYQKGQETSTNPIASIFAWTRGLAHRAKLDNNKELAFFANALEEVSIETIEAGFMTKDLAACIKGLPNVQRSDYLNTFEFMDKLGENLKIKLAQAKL
How it was run: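 NADPH depletion, read via diaphorase/resazurin coupling, after adding substrate at 0.6 mM α-KG and 0.012 mM NADPH. Beforehand, 0.00032 mg/mL enzyme sat with compound 30 min at room temperature in pH 6.5 potassium phosphate buffer with MgCl2, glycerol and BSA.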

[1] = enzymatic inhibition, IDH1 R132H
[2] = enzymatic inhibition, IDH1 R132C
[3] = IDH1 R132H enzymatic inhibition, IC50 class
[4] = IDH1 R132C enzymatic inhibition, IC50 class

Chain of IDH1 R132H (O75874 whole entry R132H): as the sequence (O75874 whole entry R132C) above, with C132H counted along it

Row | pIC50 (IDH1 R132H; [1]) | pIC50 (IDH1 R132C; [2]) | pIC50 (IDH1 R132H; [3]) | pIC50 (IDH1 R132C; [4]) | SMILES
1 | 4.70 to 5.30 | 4.70 to 5.30 |  |  | COc1cc(Cl)ccc1-n1c2c(cc(-c3nc(-c4ccc(Cl)cc4)cs3)c1=O)C(=O)CC(C)(C)C2 [Compound 579]
2 | > 6.52 | 6.00 to 6.52 |  |  | CCOc1ncc(Cl)cc1-n1c(C=C(C)C)c(C(=O)N2CCNCC2)cc(-c2nc(-c3ccc(C(F)F)nc3)cs2)c1=O [Compound 580]
3 | > 6.52 | > 6.52 |  |  | CCc1cccc(CC)c1-n1c(C=C(C)C)c(C(=O)N2CCNCC2)cc(-c2nc(-c3ccc(C(F)(F)F)cc3)cs2)c1=O [Compound 581, 1-(2,6-diethylphenyl)-6-(2-methylprop-1-en-1-yl)-5-(piperazine-1-carbonyl)-3-(4-(4-(trifluoromethyl)phenyl)thiazol-2-yl)pyridin-2(1H)-one]
4 | > 6.52 | > 6.52 |  |  | CCc1ccc(F)cc1-n1c(C=C(C)C)c(C(=O)N2CCNCC2)cc(-c2nc(-c3ccc(C(F)(F)F)cc3)cs2)c1=O [Compound 583]
5 | > 6.52 | > 6.52 |  |  | COCc1ncc(Cl)cc1-n1c(C=C(C)C)c(C(=O)N2CCNCC2)cc(-c2nc(-c3ccc(C(F)(F)F)cc3)cs2)c1=O [Compound 586]
6 | > 6.52 | > 6.52 |  |  | CCOc1ncc(C)cc1-n1c(C=C(C)C)c(C(=O)N2CCNCC2)cc(-c2nc(-c3ccc(C(F)(F)F)cc3)cs2)c1=O [Compound 587]
7 | > 6.52 | > 6.52 |  |  | CC(C)=Cc1c(C(=O)N2CCNCC2)cc(-c2nc(-c3ccc(Cl)cc3)cs2)c(=O)n1-c1ccccc1OCC(F)(F)F [Compound 589]
8 | 4.70 to 5.30 | 4.70 to 5.30 |  |  | O=C1CCCc2c1cc(-c1nc(-c3ccc(Cl)cc3)cs1)c(=O)n2-c1ccccc1CCO [Compound 590]
9 | > 6.52 | > 6.52 |  |  | CCc1cccc(CC)c1-n1c(C=C(C)C)c(C(=O)N2CCNC(C(=O)O)C2)cc(-c2nc(-c3ccc(Cl)cc3)cs2)c1=O (centres unmarked) [Compound 591]
10 | 6.00 to 6.52 | 5.30 to 6.00 |  |  | CCOc1ncc(C)cc1-n1c(C=C(C)C)c(C(=O)N2CCNCC2)cc(-c2nc(-c3ccc(C(F)F)cn3)cs2)c1=O [Compound 592]
11 | > 6.52 | > 6.52 |  |  | CCc1cccc(CC)c1-n1c(C=C(C)C)c(C(=O)N2CCNC(=O)C2)cc(-c2ccn(-c3ccc(Cl)cc3)n2)c1=O [Compound 593]
12 | < 4.70 | 5.30 to 6.00 |  |  | Cc1ccc(-n2c3c(cc(-c4nc(-c5ccc(Cl)cc5)cs4)c2=O)C(=O)CC(C)(C)C3)c(Cl)c1 [Compound 594]
13 | < 4.70 | < 4.70 |  |  | Cc1[nH]c(=O)c(-c2nc(-c3ccc(Cl)cc3)cs2)cc1C(=O)N1CCNCC1 [Compound 595]
14 | > 6.52 | > 6.52 |  |  | CCc1ccccc1-n1c(C=C(C)C)c(C(=O)N2CCNCC2)cc(-c2nc(-c3ccc(Cl)cc3)cs2)c1=O [Compound 596]
15 | < 4.70 | < 4.70 |  |  | COc1ccc(-n2c3c(cc(-c4nc(-c5ccc(Cl)cc5)cs4)c2=O)C(=O)CC(C)(C)C3)c(OC)c1 [Compound 597]
16 | > 6.52 | > 6.52 |  |  | CCOc1ccc(-c2csc(-c3cc(C(=O)N4CCNCC4)c(C=C(C)C)n(-c4c(CC)cccc4CC)c3=O)n2)cc1 [Compound 598]
17 | > 6.52 | > 6.52 |  |  | CCc1cccc(CC)c1-n1c(C=C(C)C)c(C(=O)N2CCNCC2CC(=O)O)cc(-c2nc(-c3ccc(Cl)cc3)cs2)c1=O (centres unmarked) [Compound 599]
18 | 6.00 to 6.52 | 5.30 to 6.00 |  |  | CCc1ccc(Cl)c(CC)c1-n1c(C)c(C(=O)N2CCNCC2)cc(-c2nc(-c3ccc(Cl)cc3)cs2)c1=O [Compound 600]
19 | 6.00 to 6.52 | > 6.52 |  |  | CCc1cccc(CC)c1-n1c(CC(C)C)c(C(=O)N2CCNCC2)cc(-c2nc(-c3ccc(Cl)cc3)c(Br)s2)c1=O [Compound 601]
20 | > 6.52 | > 6.52 |  |  | CC(C)=Cc1c(C(=O)N2CCNCC2)cc(-c2nc(-c3ccc(Cl)cc3)cs2)c(=O)n1-c1cc(Cl)cnc1OC(C)C [Compound 602]
21 | 6.00 to 6.52 | 6.00 to 6.52 |  |  | COc1ccc(C#N)cc1-n1c(C=C(C)C)c(C(=O)N2CCNCC2)cc(-c2nc(-c3ccc(Cl)cc3)cs2)c1=O [Compound 603]
22 | > 6.52 | > 6.52 |  |  | CCc1cccc(CC)c1-n1c(C=C(C)C)c(C(=O)N2CCNC[C@@H]2C)cc(-c2nc(-c3ccc(C(F)(F)F)cc3)cs2)c1=O [Compound 604]
23 | > 6.52 | > 6.52 |  |  | CCc1cccc(CC)c1-n1c(C=C(C)C)c(C(=O)N2CCNCC2)cc(-c2nc(-c3ccc(OC4CC4)cc3)cs2)c1=O [Compound 605]
24 | > 6.52 | > 6.52 |  |  | CCc1cccc(CC)c1-n1c(C=C(C)C)c(C(=O)N2CCNCC2)cc(-c2ccn(-c3ccc(C4CC4)cc3)n2)c1=O [Compound 606]
25 | > 6.52 | > 6.52 |  |  | CCc1cccc(CC)c1-n1c(CC(C)C)c(C(=O)N2CCNCC2)cc(-c2nc(-c3ccc(Cl)c(F)c3)c(C)s2)c1=O [Compound 608]
26 | 6.00 to 6.52 | 6.00 to 6.52 |  |  | CCOc1cccc(OCC)c1-n1c2c(cc(-c3nc(-c4ccc(Cl)cc4)cs3)c1=O)C(=O)CC(C)(C)C2 [Compound 609]

Row | pIC50 (IDH1 R132H; [1]) | pIC50 (IDH1 R132C; [2]) | pIC50 (IDH1 R132H; [3]) | pIC50 (IDH1 R132C; [4]) | SMILES
27 | 6.00 to 6.52 | 6.00 to 6.52 |  |  | CCc1cccc(CC)c1-n1c2c(cc(-c3nc(-c4ccc(Cl)cc4)cs3)c1=O)C(=O)N1CCCCC21 (centres unmarked) [Compound 610]
28 | > 6.52 | > 6.52 |  |  | CCc1cccc(CC)c1-n1c(CC2CCOC2)c(C(=O)N2CCNCC2)cc(-c2nc(-c3ccc(Cl)cc3)cs2)c1=O (centres unmarked) [Compound 611]
29 | > 6.52 | > 6.52 |  |  | CCc1cccc(CC)c1-n1c(CC2CCCCC2)c(C(=O)N2CCNCC2)cc(-c2nc(-c3ccc(Cl)cc3)cs2)c1=O [Compound 612]
30 | 6.00 to 6.52 | 6.00 to 6.52 |  |  | Cc1ccc(Cl)c(-n2c3c(cc(-c4nc(-c5ccc(Cl)cc5)cs4)c2=O)C(=O)CC(C)(C)C3)c1 [Compound 613]
31 | > 6.52 | > 6.52 |  |  | COc1ncccc1-n1c(C=C(C)C)c(C(=O)N2CCNCC2)cc(-c2nc(-c3ccc(Cl)cc3)cs2)c1=O [Compound 614]
32 | < 4.70 | < 4.70 |  |  | CCc1cccc(CC)c1-n1c(CC2CCNCC2)c(C(=O)N2CCNCC2)cc(-c2nc(-c3ccc(Cl)cc3)cs2)c1=O [Compound 615]
33 | 4.70 to 5.30 | 4.70 to 5.30 |  |  | CC(C)=Cc1c(C(=O)N2CCNCC2)cc(-c2nc(-c3ccc(Cl)cc3)cs2)c(=O)n1-c1ccc[nH]c1=O [Compound 616]
34 |  |  | 5.30 to 6.00 | 5.30 to 6.00 | CCc1cccc(CC)c1N1C(=O)C(c2nc(-c3ccc(Cl)cc3)cs2)CC(CN2CCNCC2)=C1CC(C)C (centres unmarked) [Compound 617]
35 |  |  | 5.30 to 6.00 | 5.30 to 6.00 | CCc1ncc(F)cc1-n1c(C=C(C)C)c(C(=O)N2CCNCC2)cc(-c2nc(-c3ccc(C(F)F)cn3)cs2)c1=O [Compound 619]
36 |  |  | > 6.52 | > 6.52 | CCc1cccc(CC)c1-n1c(C=C(C)C)c(C(=O)N2CCNCC2)cc(-c2nc(-c3ccc(C4CC4)cc3)cs2)c1=O [Compound 620]
37 |  |  | 6.00 to 6.52 | > 6.52 | CCc1cccc(CC)c1-n1c(C=C(C)C)c(C(=O)N2CCNCC2CC(C)C)cc(-c2nc(-c3ccc(Cl)cc3)cs2)c1=O (centres unmarked) [Compound 621]
38 |  |  | > 6.52 | > 6.52 | CCc1cccc(CC)c1-n1c(CC2CCCC2)c(C(=O)N2CCNCC2)cc(-c2nc(-c3ccc(Cl)cc3)cs2)c1=O [Compound 622]
39 |  |  | > 6.52 | > 6.52 | CCc1cccc(CC)c1-n1c(C=C(C)C)c(C(=O)N2CCC(NC)CC2)cc(-c2nc(-c3ccc(Cl)cc3)cs2)c1=O [Compound 623]
40 |  |  | 6.00 to 6.52 | > 6.52 | CCc1cccc(CC)c1-n1c(CC(C)C)c(C(=O)N2CCNCC2)cc(-c2nc(-c3ccc(Cl)c(C)c3)c(C)s2)c1=O [Compound 624]
41 |  |  | > 6.52 | 6.00 to 6.52 | CCOc1ccc(Cl)cc1-n1c(C=C(C)C)c(C(=O)N2CCNCC2)cc(-c2nc(-c3ccc(C(F)(F)F)nc3)cs2)c1=O [Compound 626]
42 |  |  | 4.70 to 5.30 | 4.70 to 5.30 | CCc1cccc(CC)c1-n1c(CC2CCNC2)c(C(=O)N2CCNCC2)cc(-c2nc(-c3ccc(Cl)cc3)cs2)c1=O (centres unmarked) [Compound 627]
43 |  |  | 5.30 to 6.00 | 5.30 to 6.00 | CCc1cccc(C)c1-n1c2c(cc(-c3nc(-c4ccc(Cl)cc4)cs3)c1=O)C(=O)CCC2 [Compound 628]
44 |  |  | > 6.52 | > 6.52 | CCc1cccc(CC)c1-n1c(C=C(C)C)c(C(=O)N2CCCC(N)C2)cc(-c2nc(-c3ccc(Cl)cc3)cs2)c1=O (centres unmarked) [Compound 629]
45 |  |  | > 6.52 | > 6.52 | COc1ccc(F)cc1-n1c(C=C(C)C)c(C(=O)N2CCNCC2)cc(-c2nc(-c3ccc(Cl)cc3)cs2)c1=O [Compound 630]
46 |  |  | > 6.52 | > 6.52 | CCc1cccc(CC)c1-n1c(C=C(C)C)c(C(=O)N2CCNCC2C)cc(-c2nc(-c3ccc(Cl)cc3)cs2)c1=O (centres unmarked) [Compound 631]
47 |  |  | 6.00 to 6.52 | 6.00 to 6.52 | CCc1cccc(CC)c1-n1c(CC(C)C)c(C(=O)N2CCNCC2)cc(-c2nc(-c3ccc(Cl)cc3F)c(C)s2)c1=O [Compound 632]
48 |  |  | 6.00 to 6.52 | 6.00 to 6.52 | CCc1cccc(CC)c1-n1c(CC(C)C)c(C(=O)N2CCNCC2)cc(-c2nc(-c3ccc(Cl)c(OC)c3)c(C)s2)c1=O [Compound 633]
49 |  |  | < 4.70 | 4.70 to 5.30 | O=C1CCCc2c1cc(-c1nc(-c3ccc(Cl)cc3)cs1)c(=O)n2-c1ccccc1CO [Compound 634]
50 |  |  | > 6.52 | > 6.52 | CCc1cccc(CC)c1-n1c(C=C(C)C)c(C(=O)N2CCCNC(=O)C2)cc(-c2ccn(-c3ccc(Cl)cc3)n2)c1=O [Compound 635]
51 |  |  | > 6.52 | > 6.52 | CCc1ncc(OC)cc1-n1c(C=C(C)C)c(C(=O)N2CCNCC2)cc(-c2nc(-c3ccc(C(F)(F)F)cc3)cs2)c1=O [Compound 636]
52 |  |  | 6.00 to 6.52 | 6.00 to 6.52 | CCc1cccc(CC)c1-n1c(CC(C)C)c(C(=O)N2CCNCC2)cc(-c2nc(-c3ccc(Cl)cc3Cl)c(C)s2)c1=O [Compound 637]
